# In publication PMC5706040, “Reclamation of Marine Chitinous Materials for the Production of α-Glucosidase Inhibitors via Microbial Conversion” (Marine Drugs, 2017):
# Key:
# Assay in all cases: absorbance at […] nm, p-nitrophenol release
# Rice α-glucosidase = molecular target: T1, Rice α-glucosidase; format: biochemical, Oryza sativa; conditions: pNPG substrate, 0.1 mol/L potassium phosphate pH 7, 37 °C, 20 min preincubation, enzyme 1.0 U/mL
# T1 construct: gene Os06g0675700; commercial enzyme from rice, type 4 (Sigma Aldrich)
# [1] = molecular target: T2, Rat intestinal α-glucosidase; format: biochemical; conditions: pNPG substrate, 0.1 mol/L potassium phosphate pH 7, 37 °C, 20 min preincubation, intestinal acetone powder preparation
# T2 construct: gene Si; preparation from rat intestinal acetone powder (Sigma Aldrich)
# [2] = molecular target: T3, S. cerevisiae α-glucosidase; format: biochemical, Saccharomyces cerevisiae; conditions: pNPG substrate, 0.1 mol/L potassium phosphate pH 7, 37 °C, 20 min preincubation, enzyme 0.25 U/mL
# T3 construct: gene MAL12; commercial yeast enzyme (Sigma Aldrich, Singapore)
# [3] = molecular target: T4, B. stearothermophilus α-glucosidase; format: biochemical, Geobacillus stearothermophilus; conditions: pNPG substrate, 0.1 mol/L potassium phosphate pH 7, 37 °C, 20 min preincubation, enzyme 0.10 U/mL
# T4 construct: gene exo-alpha-1; commercial enzyme (Sigma Aldrich, Singapore)
compound,measurement,setting,value
C[C@H]1O[C@H](O[C@H]2[C@H](O)[C@@H](O)[C@@H](O[C@H]3[C@H](O)[C@@H](O)C(O)O[C@@H]3CO)O[C@@H]2CO)[C@H](O)[C@@H](O)[C@@H]1N[C@H]1C=C(CO)[C@@H](O)[C@H](O)[C@H]1O (stereo partly shown) [acarbose],Inhibition by Acarbose / IC50,Rice α-glucosidase,3.04 ± 0.82 µg/mL
same,Inhibition by Acarbose / IC50,[1],78 ± 3.2 µg/mL
same,α-Glucosidase Inhibition / IC50,[2],1095 ± 93 µg/mL
same,Inhibition by Acarbose / IC50,[3],0.042 ± 0.003 µg/mL
